Test results from ChEMBL document CHEMBL5126521, “Analgesic Opioid Ligand Discovery Based on Nonmorphinan Scaffolds Derived from Natural Sources” (J Med Chem, 2022).
Bridge positions count the residues as written; N and C are the ends. Square brackets hold non-standard residues; d marks the D form. Peptide text beside a SMILES is read from it.

Assays:
[1] = Stability in mouse serum assessed as half life; assay type: ADME, cell-free
Mu-type opioid receptor [2] = molecular target: T1, Mu-type opioid receptor (Homo sapiens, UniProt P35372); assay: Displacement of [3H]DAMGO from MOP (unknown origin) stably expressed in HEK293 cells by liquid scintillation counter analysis; assay type: cell-based
[3] = molecular target: T2, Delta-type opioid receptor (Homo sapiens, UniProt P41143); assay: Displacement of [3H]DPDPE from DOP (unknown origin) stably expressed in HEK293 cells by liquid scintillation counter analysis; assay type: cell-based
[4] = Stability in mouse brain homogenate assessed as half life; assay type: ADME, tissue-based
Mu-type opioid receptor [5] = molecular target: T1, Mu-type opioid receptor; assay: Agonist activity at MOP (unknown origin) stably expressed in HEK293 cells assessed as forskolin stimulated cAMP accumulation incubated for 30 mins by radioactivity based scintillation counter analysis; assay type: functional, cell-based
Mu-type opioid receptor [6] = molecular target: T1, Mu-type opioid receptor; assay: Agonist activity at MOP (unknown origin) stably expressed in HEK293 cells assessed as forskolin stimulated cAMP accumulation incubated for 30 mins by radioactivity based scintillation counter analysis relative to control; assay type: functional, cell-based; conditions: filed as agonist
Mu-type opioid receptor [7] = molecular target: T1, Mu-type opioid receptor; assay: Agonist activity at human recombinant MOP expressed in CHO cells by calcium mobilization assay; assay type: functional, cell-based
Mus musculus = assay: Antinociceptive activity in Swiss albino mouse assessed tail flick response in warm water administered icv; assay type: functional
Mu-type opioid receptor [8] = molecular target: Mu-type opioid receptor (Rattus norvegicus, UniProt P33535); assay: Inhibition of Wistar rat brain membrane MOP; assay type: cell membranes
[9] = molecular target: Delta-type opioid receptor (Rattus norvegicus, UniProt P33533); assay: Inhibition of Wistar rat brain membrane DOP; assay type: cell membranes
[10] = Stability in rat brain homogenate assessed as compound remaining measured after 90 mins relative to control; assay type: ADME, tissue-based; conditions: read-out: Stability
Mu-type opioid receptor [11] = molecular target: T1, Mu-type opioid receptor; assay: Binding affinity to MOP (unknown origin)
[12] = molecular target: T2, Delta-type opioid receptor; assay: Binding affinity to DOP (unknown origin)
Rattus norvegicus = assay: Antinociceptive activity in rat administered icv by tail pressure test relative to control; assay type: functional; design: concentration or dose not given beside the values
Mu-type opioid receptor [13] = molecular target: Mu-type opioid receptor (Mus musculus, UniProt P42866); assay: Antagonist activity at mouse vas deferns MOP; assay type: functional
Mu-type opioid receptor [14] = molecular target: Mu-type opioid receptor (Cavia porcellus, UniProt P97266); assay: Antagonist activity at guinea pig ileum MOP; assay type: functional, tissue-based
Sequence of Mu-type opioid receptor (Cavia porcellus, UniProt P97266) (P97266 whole entry): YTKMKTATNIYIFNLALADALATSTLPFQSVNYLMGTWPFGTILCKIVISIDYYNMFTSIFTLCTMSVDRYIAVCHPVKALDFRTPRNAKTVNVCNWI

T1 sequence (P35372 whole entry): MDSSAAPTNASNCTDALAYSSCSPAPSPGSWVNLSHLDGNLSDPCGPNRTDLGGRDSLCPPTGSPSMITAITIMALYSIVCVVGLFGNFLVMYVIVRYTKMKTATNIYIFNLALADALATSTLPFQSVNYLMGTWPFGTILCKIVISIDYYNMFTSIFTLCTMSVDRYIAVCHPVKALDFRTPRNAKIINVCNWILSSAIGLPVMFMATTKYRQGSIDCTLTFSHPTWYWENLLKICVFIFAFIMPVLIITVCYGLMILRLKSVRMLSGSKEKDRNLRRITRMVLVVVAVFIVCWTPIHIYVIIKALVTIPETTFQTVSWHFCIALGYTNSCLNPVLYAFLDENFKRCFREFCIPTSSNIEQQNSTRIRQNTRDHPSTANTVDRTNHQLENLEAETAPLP
Sequence of Mu-type opioid receptor (Rattus norvegicus, UniProt P33535) (P33535 whole entry): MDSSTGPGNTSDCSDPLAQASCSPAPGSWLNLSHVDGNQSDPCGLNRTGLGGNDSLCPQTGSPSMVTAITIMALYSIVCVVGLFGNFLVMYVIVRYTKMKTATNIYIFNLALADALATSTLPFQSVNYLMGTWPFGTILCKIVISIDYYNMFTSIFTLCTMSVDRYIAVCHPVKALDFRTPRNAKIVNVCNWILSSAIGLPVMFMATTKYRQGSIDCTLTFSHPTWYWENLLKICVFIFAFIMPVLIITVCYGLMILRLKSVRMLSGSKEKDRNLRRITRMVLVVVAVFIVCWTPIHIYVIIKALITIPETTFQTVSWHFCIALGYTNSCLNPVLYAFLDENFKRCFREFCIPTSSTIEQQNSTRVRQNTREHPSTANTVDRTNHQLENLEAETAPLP
T2 sequence (P41143 whole entry): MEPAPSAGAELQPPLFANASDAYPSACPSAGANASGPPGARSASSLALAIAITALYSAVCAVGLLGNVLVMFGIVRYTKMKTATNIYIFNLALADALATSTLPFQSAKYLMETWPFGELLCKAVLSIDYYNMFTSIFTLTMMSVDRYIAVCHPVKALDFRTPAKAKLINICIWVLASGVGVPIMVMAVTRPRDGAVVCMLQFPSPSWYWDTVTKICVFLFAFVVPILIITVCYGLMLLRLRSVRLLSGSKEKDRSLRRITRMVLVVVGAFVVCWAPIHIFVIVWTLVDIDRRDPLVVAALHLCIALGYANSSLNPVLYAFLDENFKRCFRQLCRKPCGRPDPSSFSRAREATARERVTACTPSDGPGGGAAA
Sequence of Delta-type opioid receptor (Rattus norvegicus, UniProt P33533) (P33533 whole entry): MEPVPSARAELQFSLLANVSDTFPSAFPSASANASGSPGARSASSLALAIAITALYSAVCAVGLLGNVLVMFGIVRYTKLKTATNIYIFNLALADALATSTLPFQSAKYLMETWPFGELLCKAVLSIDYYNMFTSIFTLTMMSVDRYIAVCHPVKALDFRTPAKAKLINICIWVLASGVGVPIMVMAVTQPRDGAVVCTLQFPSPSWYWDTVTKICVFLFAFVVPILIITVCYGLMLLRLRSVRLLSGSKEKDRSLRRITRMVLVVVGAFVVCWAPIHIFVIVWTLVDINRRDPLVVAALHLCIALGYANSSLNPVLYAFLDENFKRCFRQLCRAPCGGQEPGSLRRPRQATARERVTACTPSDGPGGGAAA
Sequence of Mu-type opioid receptor (Mus musculus, UniProt P42866) (P42866 whole entry): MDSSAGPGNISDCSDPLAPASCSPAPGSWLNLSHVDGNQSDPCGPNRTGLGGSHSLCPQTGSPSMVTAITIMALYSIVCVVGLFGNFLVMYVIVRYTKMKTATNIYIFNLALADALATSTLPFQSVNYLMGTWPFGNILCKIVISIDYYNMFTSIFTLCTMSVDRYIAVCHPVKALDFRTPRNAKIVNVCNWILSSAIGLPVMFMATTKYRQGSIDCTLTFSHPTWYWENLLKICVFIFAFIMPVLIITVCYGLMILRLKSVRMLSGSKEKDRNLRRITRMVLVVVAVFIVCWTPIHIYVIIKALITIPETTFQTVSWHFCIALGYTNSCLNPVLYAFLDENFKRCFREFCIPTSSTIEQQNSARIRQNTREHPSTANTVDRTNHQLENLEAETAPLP

Row | Compound | Ki (Mu-type opioid receptor [2]) | Ki [3] | EC50 (Mu-type opioid receptor [5]) | Emax (Mu-type opioid receptor [6]) | remaining at […] [10] | also measured
1 | C=C(C(N)=O)[C@@H](NC(=O)[C@H](Cc1ccccc1)NC(=O)[C@@H](C)N(C)C(=O)[C@@H](N)Cc1c(C)cc(O)cc1C)c1ccccc1 | 0.0511 nM | 55.7 nM | 0.000515 nM | 95.1% |  | half-life [1]: ≥ 5 h; half-life [4]: ≥ 5 h
2 | Cc1cccc([C@@H]2NC(=O)[C@H](NC(=O)[C@@H](N)Cc3c(C)cc(O)cc3C)CCCCNC(=O)C[C@@H](C(N)=O)NC(=O)[C@H](c3ccccc3)NC2=O)c1 |  |  |  |  | 85% | EC50 (Mu-type opioid receptor [7]): 2.95 nM; ED50 (Mus musculus): 0.22 µg; IC50 (Mu-type opioid receptor [8]): 0.8 nM; IC50 [9]: 116 nM
3 | NC(=O)[C@@H]1CC(=O)NCCCC[C@@H](NC(=O)[C@@H](N)Cc2ccc(O)cc2)C(=O)N[C@@H](c2ccc(F)cc2)C(=O)N[C@@H](c2ccccc2)C(=O)N1 |  |  |  |  | 93% | 
4 | NC(=O)[C@@H]1CC(=O)NCCCC[C@@H](NC(=O)[C@@H](N)Cc2ccc(O)cc2)C(=O)N[C@@H](c2ccc(C(F)(F)F)cc2)C(=O)N[C@@H](c2ccccc2)C(=O)N1 |  |  |  |  | 93% | 
5 | C=C(C(N)=O)[C@@H](NC(=O)[C@H](Cc1c[nH]c2ccccc12)NC(=O)[C@@H](C)N(C)C(=O)[C@@H](N)Cc1ccc(O)cc1)c1ccco1 | 0.3 nM | 3100 nM | 1.45 nM | 90.6% |  | 
6 | Cc1ccc([C@@H]2NC(=O)[C@H](c3ccccc3)NC(=O)[C@H](NC(=O)[C@@H](N)Cc3c(C)cc(O)cc3C)CCCCNC(=O)C[C@@H](C(N)=O)NC2=O)cc1 |  |  |  |  | 85% | EC50 (Mu-type opioid receptor [7]): 7.76 nM; ED50 (Mus musculus): 0.006 µg; IC50 (Mu-type opioid receptor [8]): 0.02 nM; IC50 [9]: 14.9 nM
7 | Cc1ccccc1[C@@H]1NC(=O)[C@H](c2ccccc2)NC(=O)[C@H](NC(=O)[C@@H](N)Cc2c(C)cc(O)cc2C)CCCCNC(=O)C[C@@H](C(N)=O)NC1=O |  |  |  |  | 85% | EC50 (Mu-type opioid receptor [7]): 5.62 nM; ED50 (Mus musculus): 0.05 µg; IC50 (Mu-type opioid receptor [8]): 0.04 nM; IC50 [9]: 2.05 nM
8 | Cc1cccc([C@@H]2NC(=O)[C@H](c3ccccc3)NC(=O)[C@H](NC(=O)[C@@H](N)Cc3c(C)cc(O)cc3C)CCCCNC(=O)C[C@@H](C(N)=O)NC2=O)c1 |  |  |  |  | 85% | EC50 (Mu-type opioid receptor [7]): 1.1 nM; ED50 (Mus musculus): 0.01 µg; IC50 (Mu-type opioid receptor [8]): 0.08 nM; IC50 [9]: 18.6 nM
9 | N[C@@H](Cc1ccc(O)cc1)C(=O)N[C@@H]1CCCCNC(=O)[C@H](Cc2ccccc2)NC(=O)[C@H](Cc2c[nH]c3ccccc23)NC1=O (H-Y[dK]WF; lactam 2-C) |  |  |  |  |  | Ki (Mu-type opioid receptor [11]): 0.25 nM; Ki [12]: 38 nM
10 | C[C@@H](NC(=O)[C@@H](N)Cc1ccc(O)cc1)C(=O)N[C@@H](Cc1ccccc1)C(N)=O |  |  |  |  |  | Activity (Rattus norvegicus): <0.2%; IC50 (Mu-type opioid receptor [13]): 4050 nM; IC50 (Mu-type opioid receptor [14]): 262 nM
11 | C[C@@H](NC(=O)[C@@H](N)Cc1ccc(O)cc1)C(=O)N[C@@H](Cc1ccccc1)C(=O)NCC(=O)N[C@@H](Cc1ccc(O)cc1)C(=O)N1CCC[C@H]1C(=O)N[C@@H](CO)C(N)=O |  |  |  |  |  | IC50 (Mu-type opioid receptor [13]): > 15000 nM; IC50 (Mu-type opioid receptor [14]): > 4000 nM
12 | C=C(C(N)=O)[C@@H](NC(=O)[C@H](Cc1c[nH]c2ccccc12)NC(=O)[C@@H](C)N(C)C(=O)[C@@H](N)Cc1c(C)cc(O)cc1C)c1ccccc1 | 0.032 nM | 37.2 nM | 0.004 nM | 98.1% |  | half-life [1]: ≥ 5 h; half-life [4]: ≥ 5 h
13 | NC(=O)[C@@H]1CC(=O)NCCCC[C@@H](NC(=O)[C@@H](N)Cc2ccc(O)cc2)C(=O)N[C@@H](c2ccccc2)C(=O)N[C@@H](c2ccc(F)cc2)C(=O)N1 |  |  |  |  | 93% | 
14 | NC(=O)[C@@H]1CC(=O)NCCCC[C@@H](NC(=O)[C@@H](N)Cc2ccc(O)cc2)C(=O)N[C@@H](c2ccccc2)C(=O)N[C@@H](c2ccc(C(F)(F)F)cc2)C(=O)N1 |  |  |  |  | 93% | 
15 | CN[C@H](C)C(=O)O |  |  |  |  |  | half-life [1]: ≥ 5 h; half-life [4]: ≥ 5 h
16 | Cc1cc(O)cc(C)c1C[C@H](N)C(=O)N[C@@H]1CCCCNC(=O)C[C@@H](C(N)=O)NC(=O)[C@H](c2ccc(F)cc2)NC(=O)[C@H](c2ccccc2)NC1=O |  |  |  |  | 93% | 
17 | C=C(C(N)=O)[C@@H](NC(=O)[C@H](Cc1ccccc1)NC(=O)[C@@H](C)N(C)C(=O)[C@@H](N)Cc1ccc(O)cc1)c1ccco1 | 0.45 nM | 4510 nM | 4.11 nM | 87.7% |  | 
18 | C=C(C(N)=O)[C@@H](NC(=O)[C@H](Cc1c[nH]c2ccccc12)NC(=O)[C@@H](C)N(C)C(=O)[C@@H](N)Cc1ccc(O)cc1)c1ccccc1 | 0.58 nM | 3990 nM | 2.27 nM | 88.3% |  | 
19 | NC(=O)[C@@H]1CC(=O)NCCCC[C@@H](NC(=O)[C@@H](N)Cc2ccc(O)cc2)C(=O)N[C@@H](c2ccccc2)C(=O)N[C@@H](c2ccc(F)cc2F)C(=O)N1 |  |  |  |  | 93% | 
20 | C=C(C(N)=O)[C@@H](NC(=O)[C@H](Cc1ccccc1)NC(=O)[C@@H](C)N(C)C(=O)[C@@H](N)Cc1c(C)cc(O)cc1C)c1ccco1 | 0.014 nM | 47.2 nM | 0.00201 nM | 96.9% |  | half-life [1]: ≥ 5 h; half-life [4]: ≥ 5 h
